8 molecules from patent US5401769A, “Dibenzofuranyl N-alkyl carbamates” (priority 1994, dated 1995) can be followed below.

Assay [1] concerns the target T1, cholesterol ester hydrolase (CEH) / cholesterol esterase (EC 3.1.1.13) (Bos taurus, UniProt P30122).
T1 construct: purchased Sigma Company, St. Louis, Mo., U.S.A. C-1892; host or cells: bovine pancreas
T1 sequence (P30122 19-597): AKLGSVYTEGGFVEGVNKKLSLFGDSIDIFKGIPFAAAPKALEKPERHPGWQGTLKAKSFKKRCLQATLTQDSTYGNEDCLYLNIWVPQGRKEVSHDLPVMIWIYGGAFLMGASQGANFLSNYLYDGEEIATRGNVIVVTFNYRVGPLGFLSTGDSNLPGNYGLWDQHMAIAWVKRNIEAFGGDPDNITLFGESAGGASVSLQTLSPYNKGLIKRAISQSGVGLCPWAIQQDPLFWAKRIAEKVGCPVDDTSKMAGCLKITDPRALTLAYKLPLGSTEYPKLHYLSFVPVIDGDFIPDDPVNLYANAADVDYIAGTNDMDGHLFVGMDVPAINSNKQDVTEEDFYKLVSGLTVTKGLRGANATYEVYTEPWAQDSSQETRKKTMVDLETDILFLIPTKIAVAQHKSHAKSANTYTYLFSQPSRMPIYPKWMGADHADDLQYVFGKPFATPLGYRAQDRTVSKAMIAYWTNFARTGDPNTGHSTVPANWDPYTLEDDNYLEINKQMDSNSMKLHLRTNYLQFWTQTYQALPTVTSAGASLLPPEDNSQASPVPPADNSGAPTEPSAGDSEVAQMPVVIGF
As to the kind of experiment: In vitro inhibition of cholesteryl ester formation by cholesterol esterase (CEH). It counts as biochemical, bovine. The text has this: (§1) The in vitro and in vivo standard experimental test procedures used to establish the ability of the anticholesterolemic compounds of this invention to prevent cholesteryl ester formation and to inhibit cholesterol absorption, are given below and the biological results are presented in Table I.
In Vitro Test Procedure: The ability of the compounds of this invention to inhibit the formation of cholesteryl esters and thereby interfere with and prevent assimilation of cholesterol into the lymphatic system and ultimately the blood stream was established by incubating the compounds at 37° C. with a mixture of cholesterol and oleic acid in the presence of buffered cholesterol esterase [(EC 3.1.1.13) Sigma Company, St. Louis, Mo., U.S.A., No. C-1892, from bovine pancreas] and measuring the amount of ester formed, according to the procedure of Field, J. of Lipid Research, 25, 389 (1984).

For assay [2], the system named is absorption of 14C-cholesterol. As to the kind of experiment: In vivo cholesterol absorption, [4-14C] cholesterol, serum radioactivity at six hours, normal rats. The settings on record: 10 mg/kg oral, 6 hr, normal rat, percent decrease compared to control. The protocol: as §1
In Vivo Assay: The in vivo cholesterol absorption studies were conducted in normal rats by oral administration of the compound being tested in propylene glycol and olive oil followed by oral administration of [4-^14 C] cholesterol in propylene glycol and olive oil, otherwise following the procedure of Cayen et al., J. Lipid Res. 20, 162 (1979). The serum radioactivity was measured at six hours after dosing. The results of this study are reported in the following Table I as percent decrease compared to control.

For `CCCCNC(=O)Oc1ccc2oc3ccccc3c2c1` [Example 1, Butylcarbamic acid 2-dibenzofuranyl ester], inhibition in assay [1] was half-maximal at 25 µM (IC50). This lies in the double-digit micromolar range. On to `CC(C)CCCC(C)NC(=O)Oc1ccc2oc3ccccc3c2c1` (centres unmarked) [Example 2, (1.5-Dimethylhexyl) carbamic acid 2-dibenzofuranyl ester], for which, in assay [1], half-maximal inhibition (IC50) required 3 µM. In assay [2], the “In Vivo Results Effect on Absorption of 14C-chol, % Decrease” value (from here on “In Vivo Results Effect … % Decrease”) is 33%. The molecule `CCCCCCNC(=O)Oc1ccc2oc3ccccc3c2c1` [Example 3, Hexylcarbamic acid 2-dibenzofuranyl ester] came in with an IC50 in assay [1] of 9.3 µM. The “In Vivo Results Effect … % Decrease” value in assay [2] is reported as 37%. `O=C(NCCCCc1ccccc1)Oc1ccc2oc3ccccc3c2c1` [Example 4, (4-Phenylbutyl)carbamic acid 2-dibenzofuranyl ester] yielded a concentration for half-maximal inhibition (IC50) in assay [1] of 68 µM. Also, the “In Vivo Results Effect … % Decrease” value in assay [2] worked out at 44%.

On to `CNC(=O)Oc1ccc2oc3ccccc3c2c1` [Example 5, Methylcarbamic acid 2-dibenzofuranyl ester], for which the IC50 in assay [1] worked out at 42 µM.

As for `O=C(NCC1CCCCC1)Oc1ccc2oc3ccccc3c2c1` [Example 6, (Cyclohexylmethyl)carbamic acid 2-dibenzofuranyl ester], the IC50 in assay [1] was found to be 13.8 µM. In addition, in assay [2], the “In Vivo Results Effect … % Decrease” value came to 43%. `CCCCCCCCCCCCNC(=O)Oc1ccc2oc3ccccc3c2c1` [Example 7, Dodecylcarbamic acid 2-dibenzofuranyl ester] displayed an IC25 in assay [1] (IC25 printed in the IC50 column, 37° C., cholesterol and oleic acid, cholesterol esterase from bovine pancreas) of 7.2 µM. For the same molecule, in assay [2], the “In Vivo Results Effect … % Decrease” value stood at 13%.

`CCNC(=O)Oc1ccc2oc3ccccc3c2c1` [Example 8, Ethylcarbamic acid 2-dibenzofuranyl ester] yielded an IC50 in assay [1] of 18.9 µM. Besides, the “In Vivo Results Effect … % Decrease” value in assay [2] was 18%.

What is called IC50 is the concentration that inhibits the measured activity by half. One may read the IC25 as the concentration at which the effect reaches the 25% level.
